Test results: US8097607B2, “Low dose rifalazil compositions” (priority 2002, dated 2012)

How the values were obtained:
mycobacterium species = details: 1 to 100 mg once or twice weekly; cited from earlier work
[1] = Clinical trial: pharmacokinetics of rifalazil in plasma after single oral doses; details: for AUC / CL/F / Cmax / half-life: male, human, in vivo, po; for half-life / K10 / K12 / K21 / V1/F / Vdβ/F: males
[2] = cited from earlier work

CO[C@H]1/C=C/O[C@@]2(C)Oc3c(C)c(O)c4c(=O)c(c5oc6cc(N7CCN(CC(C)C)CC7)cc(O)c6nc-5c4c3C2=O)NC(=O)/C(C)=C\C=C\[C@H](C)[C@H](O)[C@@H](C)[C@@H](O)[C@@H](C)[C@H](OC(C)=O)[C@@H]1C [rifalazil, Rifalazil]
efficacy against mycobacterium species (mycobacterium species): efficacious | AUC ([1]; 2.5 mg): 185 ng·h/mL | CL/F ([1]; 2.5 mg): 3 mL/min/kg | Cmax ([1]; 2.5 mg): 7.9 ng/mL | half-life ([1]; 2.5 mg, Absorption t½, single 2.5 mg oral dose): 0.67 h | half-life ([1]; 2.5 mg, Distribution t½, single 2.5 mg oral dose): 7.3 h | half-life ([1]; 2.5 mg, Elimination t½, single 2.5 mg oral dose): 139 h | AUC ([1]; 50 mg): 1350 ng·h/mL | CL/F ([1]; 50 mg): 8.17 mL/min/kg | Cmax ([1]; 50 mg): 57.3 ng/mL | half-life ([1]; 50 mg, Absorption t½, single 50 mg oral dose): 0.5 h | half-life ([1]; 50 mg, Distribution t½, single 50 mg oral dose): 11.6 h | half-life ([1]; 50 mg, Elimination t½, single 50 mg oral dose): 116 h | K10 ([1]; single 2.5 mg oral dose): 0.045 h⁻¹ | K12 ([1]; single 2.5 mg oral dose): 0.044 h⁻¹ | K21 ([1]; single 2.5 mg oral dose): 0.011 h⁻¹ | V1/F ([1]; single 2.5 mg oral dose): 4.08 L/kg | Vdβ/F ([1]; single 2.5 mg oral dose): 36.0 L/kg | K10 ([1]; single 50 mg oral dose): 0.039 h⁻¹ | K12 ([1]; single 50 mg oral dose): 0.018 h⁻¹ | K21 ([1]; single 50 mg oral dose): 0.009 h⁻¹ | V1/F ([1]; single 50 mg oral dose): 12.7 L/kg | Vdβ/F ([1]; single 50 mg oral dose): 82.4 L/kg | incidence of adverse reactions (headaches, fevers, flu-like symptoms) ([2]; 1 to 100 mg once or twice weekly): reduced, but did not eliminate | adverse reactions ([2]; clinical trials, daily administration, 10 mg per day to 10 g per day): many adverse reactions occurred
